pKi: −log10 of the molar value.
Experiments:
Coagulation factor X = Coagulation factor X (Homo sapiens, UniProt P00742); test: Tested in vitro for the inhibitory potency against Coagulation factor Xa
Serine protease 1 = Serine protease 1 (Homo sapiens, UniProt P07477); test: Tested in vitro for the selectivity against trypsin (Trp)
Prothrombin = Prothrombin (Homo sapiens, UniProt P00734); test: Tested in vitro for the selectivity against thrombin (IIa)

Serine protease 1, sequence (P07477 whole entry): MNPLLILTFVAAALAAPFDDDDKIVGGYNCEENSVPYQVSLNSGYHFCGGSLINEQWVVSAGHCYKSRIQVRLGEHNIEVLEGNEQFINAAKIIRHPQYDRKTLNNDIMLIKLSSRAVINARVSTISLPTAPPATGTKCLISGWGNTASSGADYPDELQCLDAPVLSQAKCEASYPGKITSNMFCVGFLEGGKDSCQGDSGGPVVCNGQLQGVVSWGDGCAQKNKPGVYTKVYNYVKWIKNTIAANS
Coagulation factor X, sequence (P00742 41-179 limits assumed): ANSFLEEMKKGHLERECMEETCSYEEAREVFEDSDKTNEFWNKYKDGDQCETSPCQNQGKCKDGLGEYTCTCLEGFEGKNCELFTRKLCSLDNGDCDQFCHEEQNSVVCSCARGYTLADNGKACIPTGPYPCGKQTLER
Coagulation factor X, sequence (P00742 235-488 limits assumed): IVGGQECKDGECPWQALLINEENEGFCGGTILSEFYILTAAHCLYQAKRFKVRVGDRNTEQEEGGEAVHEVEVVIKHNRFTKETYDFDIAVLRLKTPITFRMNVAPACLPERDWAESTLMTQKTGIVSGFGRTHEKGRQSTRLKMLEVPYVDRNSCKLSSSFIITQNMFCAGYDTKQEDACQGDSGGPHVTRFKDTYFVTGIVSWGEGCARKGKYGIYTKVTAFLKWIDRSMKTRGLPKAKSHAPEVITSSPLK

Structure (SMILES) | pKi (Coagulation factor X) | pKi (Serine protease 1) | pKi (Prothrombin)
CCc1nc2c(N(C)C)c(OC3CCN(C(C)=N)CC3)ccc2n1Cc1ccc2ccc(C(=N)N)cc2c1 | 8.30 | 8.00 | < 5.30
CCc1nc2ccc(OC3CCN(C(C)=N)CC3)cc2n1Cc1ccc(-c2cccc(C(=N)N)c2)cc1 | 8.66 | 7.14 | 6.11
CCc1nc2cc(OC3CCN(C(C)=N)CC3)ccc2n1Cc1ccc2ccc(C(=N)N)cc2c1 | – | 8.30 | 5.70
CCc1nc2cc(OC3CCN(C(C)=N)CC3)ccc2n1Cc1ccc(-c2ccc(C(=N)N)cc2)cc1 | 6.17 | 6.82 | 5.82
CCc1nc2c([N+](=O)[O-])c(OC3CCN(C(C)=N)CC3)ccc2n1Cc1ccc2ccc(C(=N)N)cc2c1 | 10.00 | 8.30 | 5.52
CCc1nc2ccc(OC3CCN(C(C)=N)CC3)cc2n1Cc1ccc(-c2ccc(C(=N)N)cc2)cc1 | 6.74 | 7.04 | 7.66
CC(=N)N1CCC(Oc2ccc3c(nc(C)n3Cc3ccc4ccc(C(=N)N)cc4c3)c2[N+](=O)[O-])CC1 | – | 8.52 | < 5.30
CCc1nc2cc(OC3CCN(C(C)=N)CC3)ccc2n1Cc1cccc(-c2cccc(C(=N)N)c2)c1 | – | 7.17 | 5.95
CCc1nc2cc(OC3CCN(C(C)=N)CC3)ccc2n1Cc1cccc(-c2ccc(C(=N)N)cc2)c1 | 6.59 | 6.16 | < 5.30
CCc1nc2c(N)c(OC3CCN(C(C)=N)CC3)ccc2n1Cc1ccc2ccc(C(=N)N)cc2c1 | 8.10 | 7.62 | 5.46
CCc1nc2ccc(OC3CCN(C(C)=N)CC3)cc2n1Cc1cccc(-c2ccc(C(=N)N)cc2)c1 | 6.82 | 6.37 | 5.44
CCc1nc2c(NC(C)=O)c(OC3CCN(C(C)=N)CC3)ccc2n1Cc1ccc2ccc(C(=N)N)cc2c1 | 7.30 | 7.60 | < 5.30
CCc1nc2c(N(CC(=O)O)CC(=O)O)c(OC3CCN(C(C)=N)CC3)ccc2n1Cc1ccc2ccc(C(=N)N)cc2c1 | 7.30 | 7.82 | < 5.30
CCc1nc2ccc(OC3CCN(C(C)=N)CC3)cc2n1Cc1cccc(-c2cccc(C(=N)N)c2)c1 | 7.47 | 6.72 | 6.72
CC(=N)N1CCC(Oc2ccc3c(nc(C(C)C)n3Cc3ccc4ccc(C(=N)N)cc4c3)c2[N+](=O)[O-])CC1 | 9.70 | 8.52 | < 5.30
CCc1nc2cc(OC3CCN(C(C)=N)CC3)ccc2n1Cc1ccc(-c2cccc(C(=N)N)c2)cc1 | 7.77 | 6.85 | 6.68

Source: ChEMBL document CHEMBL1135304, “Benzimidazole-based fXa inhibitors with improved thrombin and trypsin selectivity” (Bioorg Med Chem Lett, 2002)
